According to publication PMC2854178 (Biochemistry, 2010):

Target: AFUA_6g12080 (Orf12080) module 1 C*AT (Aspergillus fumigatus, UniProt Q4WLW5)
Format: biochemical
Conditions: ATP, 10 mM MgCl2, pH 7.4, 25 °C, 5 μM enzyme (apo); off-pathway acyl-AMP release

AFUA_6g12080 (Orf12080) module 1 C*AT, sequence (Q4WLW5 1-885): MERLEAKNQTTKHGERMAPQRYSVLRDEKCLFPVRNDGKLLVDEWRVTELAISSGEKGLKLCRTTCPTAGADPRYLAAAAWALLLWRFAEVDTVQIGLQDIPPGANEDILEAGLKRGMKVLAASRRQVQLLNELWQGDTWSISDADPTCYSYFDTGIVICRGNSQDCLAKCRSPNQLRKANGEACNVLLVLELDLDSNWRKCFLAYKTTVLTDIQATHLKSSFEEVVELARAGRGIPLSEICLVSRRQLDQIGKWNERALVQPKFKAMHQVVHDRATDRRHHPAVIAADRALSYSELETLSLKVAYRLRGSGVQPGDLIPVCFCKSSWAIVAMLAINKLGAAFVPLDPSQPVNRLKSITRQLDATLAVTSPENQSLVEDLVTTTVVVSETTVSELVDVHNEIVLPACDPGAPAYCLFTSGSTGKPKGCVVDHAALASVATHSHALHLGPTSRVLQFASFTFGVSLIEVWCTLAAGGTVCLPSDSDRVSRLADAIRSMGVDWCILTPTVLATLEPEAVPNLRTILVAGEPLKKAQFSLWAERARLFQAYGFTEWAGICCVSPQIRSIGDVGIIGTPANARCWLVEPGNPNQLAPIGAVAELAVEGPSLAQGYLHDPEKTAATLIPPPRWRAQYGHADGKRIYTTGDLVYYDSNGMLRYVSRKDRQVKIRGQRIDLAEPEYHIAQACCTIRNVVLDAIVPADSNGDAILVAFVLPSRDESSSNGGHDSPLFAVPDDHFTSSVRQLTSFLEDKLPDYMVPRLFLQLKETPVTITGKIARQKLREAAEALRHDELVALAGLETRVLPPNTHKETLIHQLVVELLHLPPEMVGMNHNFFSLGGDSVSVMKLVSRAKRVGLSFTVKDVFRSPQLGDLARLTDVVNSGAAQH

Nc1ccccc1C(=O)O [anthranilic acid, 2-aminobenzoic acid]
Km: 18 µM
